From US8846746B2, “Pyrazole compound and pharmaceutical use thereof” (Japan Tobacco Inc., priority 2011, dated 2014) come the findings set out here.

Chain of human SGLT1 (P13866 whole entry): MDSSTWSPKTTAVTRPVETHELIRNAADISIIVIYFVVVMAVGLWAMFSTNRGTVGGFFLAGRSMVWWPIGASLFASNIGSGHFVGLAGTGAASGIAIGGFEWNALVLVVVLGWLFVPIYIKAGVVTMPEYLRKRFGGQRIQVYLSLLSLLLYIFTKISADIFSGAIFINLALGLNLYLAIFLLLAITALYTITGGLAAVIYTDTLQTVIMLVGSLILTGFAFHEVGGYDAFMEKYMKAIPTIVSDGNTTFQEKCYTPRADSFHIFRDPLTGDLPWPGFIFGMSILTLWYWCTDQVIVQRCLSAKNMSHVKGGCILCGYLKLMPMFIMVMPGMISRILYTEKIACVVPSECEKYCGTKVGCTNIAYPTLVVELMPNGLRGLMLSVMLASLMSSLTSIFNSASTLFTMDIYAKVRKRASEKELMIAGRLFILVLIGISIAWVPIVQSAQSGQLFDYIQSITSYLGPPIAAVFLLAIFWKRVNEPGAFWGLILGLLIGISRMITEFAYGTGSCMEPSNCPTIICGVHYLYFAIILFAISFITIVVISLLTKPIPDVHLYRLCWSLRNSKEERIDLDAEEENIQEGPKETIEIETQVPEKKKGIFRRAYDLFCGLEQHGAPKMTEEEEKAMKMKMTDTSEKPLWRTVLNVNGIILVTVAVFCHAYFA

The first test concerns the target human SGLT1 (Homo sapiens (Human), UniProt P13866). Nature of the test: SGLT1 inhibitory activity: 14C-AMG uptake into CHO-K1 cell line stably expressing human SGLT1. Particulars: 14C-AMG uptake, CHO-K1 cells stably expressing human SGLT1. Format: cell-based. The method, boiled down:
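Human SGLT1 was stably expressed in CHO-K1 cells. Cells were first held 20 min in sodium-free buffer, then exposed to compound in Na(+)/BSA buffer with tracer and AMG (2 mM in the added solution).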
For `CCCc1cccc(-c2cc(NC(=O)[C@@H]3CNC(=O)C3)nn2-c2ccc(OCc3ccccc3)cc2)c1` [Example 370], the IC50 is 6.35 nM.

As to `CCCc1cccc(-c2cc(NC(=O)[C@@H]3CNC(=O)C3)nn2-c2ccc(O)cc2)c1` [Example 371], inhibition was half-maximal at 36 nM (IC50).

As to `CCCc1cccc(-c2cc(NC(=O)[C@@H]3CNC(=O)C3)nn2-c2ccc(OCC)cc2)c1` [Example 372], half-maximal inhibition (IC50) was put at 14 nM.

As for `CCCc1cccc(-c2cc(NC(=O)[C@@H]3CNC(=O)C3)nn2-c2ccc(OC(C)C)cc2)c1` [Example 373], the IC50 turned out to be 5.3 nM.

Regarding `CCCc1cccc(-c2cc(NC(=O)[C@@H]3CNC(=O)C3)nn2-c2ccc(OCCC(F)(F)F)cc2)c1` [Example 374], the IC50 turned out to be 8.8 nM.

For the compound `CCCc1cccc(-c2cc(NC(=O)[C@@H]3CNC(=O)C3)nn2-c2ccc(OCC(F)(F)F)cc2)c1` [Example 375], the IC50 came to 13 nM.

The compound `CCCc1cccc(-c2cc(NC(=O)[C@@H]3CNC(=O)C3)nn2-c2ccccc2OC)c1` [Example 376] displayed an IC50 of 31 nM.

`CCCc1cccc(-c2cc(NC(=O)[C@@H]3CNC(=O)C3)nn2-c2ccccc2OC(C)C)c1` [Example 378] gave an IC50 of 21 nM.

The compound `CCCc1cccc(-c2cc(NC(=O)[C@@H]3CNC(=O)C3)nn2-c2cccc(OCC)c2)c1` [Example 379] registered an IC50 of 5.25 nM.

Regarding `CCCOc1cccc(-n2nc(NC(=O)[C@@H]3CNC(=O)C3)cc2-c2cccc(CCC)c2)c1` [Example 380], the IC50 was determined as 6.75 nM.

`CCCc1cccc(-c2cc(NC(=O)[C@@H]3CNC(=O)C3)nn2-c2cccc(OCC(C)C)c2)c1` [Example 381] came in with a 50% inhibitory concentration (IC50) of 11.5 nM.

For the compound `CCCc1cccc(-c2cc(NC(=O)[C@@H]3CNC(=O)C3)nn2-c2cccc(OC3CCCC3)c2)c1` [Example 382], the IC50 was determined as 12 nM.

Take `CCCOc1ccc(-n2nc(NC(=O)[C@@H]3CNC(=O)C3)cc2-c2cccc(CCC)c2)cc1` [Example 383]: inhibition was half-maximal at 14 nM (IC50).

As for `CCCc1cccc(-c2cc(NC(=O)[C@@H]3CNC(=O)N3CC(F)(F)F)nn2-c2ccccc2)c1` [Example 384], the IC50 was 48 nM.

Turning to `CCCc1cccc(-c2cc(NC(=O)[C@H]3CNC(=O)N3CC(F)(F)F)nn2-c2ccccc2)c1` [Example 385], it took 7 nM to reach half-maximal inhibition (IC50).

As to `CCCc1cccc(-c2cc(NC(=O)[C@@H]3CNC(=O)C3)nn2-c2ccc(OC(F)(F)F)cc2)c1` [Example 386], the midpoint of inhibition, the IC50, lay at 35 nM.

In turn, `CCCc1cccc(-c2cc(NC(=O)[C@@H]3CNC(=O)C3)nn2-c2cccc(OCC(F)(F)F)c2)c1` [Example 387] yielded an IC50 of 12.5 nM.

In turn, `CCCc1cccc(-c2cc(NC(=O)[C@@H]3CNC(=O)C3)nn2-c2cccc(OC(=O)OC(C)(C)C)c2)c1` [Example 388] showed an IC50 of 5.35 nM.

With `CCCc1cccc(-c2cc(NC(=O)[C@@H]3CNC(=O)C3)nn2-c2ccc(F)c(OC)c2)c1` [Example 389], the IC50 stood at 15 nM.

In turn, `CCCc1cccc(-c2cc(NC(=O)[C@@H]3CNC(=O)C3)nn2-c2ccc(F)c(OCC)c2)c1` [Example 390] returned an IC50 of 9.4 nM.

Compound `CCCc1cccc(-c2cc(NC(=O)[C@@H]3CNC(=O)C3)nn2-c2ccc(F)c(OC(C)C)c2)c1` [Example 391] registered an IC50 of 3.75 nM.

Compound `CCCc1cccc(-c2cc(NC(=O)[C@@H]3CNC(=O)C3)nn2-c2cccc(C(C)C)c2)c1` [Example 392] had an IC50 of 5.7 nM.

With `CCCc1cccc(-c2cc(NC(=O)[C@@H]3CNC(=O)C3)nn2-c2cccc(CC)c2)c1` [Example 393], half-maximal inhibition (IC50) required 5.25 nM.

As for `CCCc1cccc(-c2cc(NC(=O)[C@@H]3CNC(=O)C3)nn2-c2cccc(C(C)(C)C)c2)c1` [Example 394], half-maximal inhibition (IC50) required 15 nM.

`CCCO[C@H](C)c1cccc(-c2cc(NC(=O)[C@@H]3CNC(=O)C3)nn2-c2ccccc2)c1` [Example 395] came in with an IC50 of 13 nM.

In the case of `CCCO[C@@H](C)c1cccc(-c2cc(NC(=O)[C@@H]3CNC(=O)C3)nn2-c2ccccc2)c1` [Example 396], the IC50 amounted to 31 nM.

For the compound `O=C1C[C@H](C(=O)Nc2cc(-c3cccc(COC(F)(F)F)c3)n(-c3ccccc3)n2)CN1` [Example 399], the IC50 was found to be 19 nM.

In turn, `CCCc1cccc(-c2cc(NC(=O)[C@@H]3CNC(=O)C3)nn2-c2cccc(OC(F)(F)F)c2)c1` [Example 400] showed an IC50 of 15 nM.

`CCCc1cccc(-c2cc(NC(=O)[C@@H]3CNC(=O)C3)nn2-c2cccc(C(F)(F)F)c2)c1` [Example 401] gave an IC50 of 13 nM.

Compound `CCCc1cccc(-c2cc(NC(=O)[C@@H]3CNC(=O)C3)nn2-c2ccc(C(F)(F)F)cc2)c1` [Example 402] came in with an IC50 of 17 nM.

Compound `CCCc1cccc(-c2cc(NC(=O)[C@@H]3CNC(=O)C3)nn2-c2ccc(CC)cc2)c1` [Example 403] returned an IC50 of 12 nM.

For `CCCc1cccc(-c2cc(NC(=O)[C@@H]3CNC(=O)C3)nn2-c2cccc(OCCOC)c2)c1` [Example 406], the IC50 stood at 7.85 nM.

`CCCc1cccc(-c2cc(NC(=O)[C@@H]3CNC(=O)C3)nn2-c2cccc(OCCOCc3ccccc3)c2)c1` [Example 407] yielded an IC50 of 7.6 nM.

As to `CCCc1cccc(-c2cc(NC(=O)[C@@H]3CNC(=O)C3)nn2-c2cccc(OCCO)c2)c1` [Example 408], the IC50 came out at 8 nM.

For the compound `O=C1C[C@H](C(=O)Nc2cc(-c3cccc(COC(C(F)(F)F)C(F)(F)F)c3)n(-c3ccc(F)cc3)n2)CN1` [Example 409], inhibition was half-maximal at 12 nM (IC50).

The compound `Cc1cc(CO[C@H](C)C(F)(F)F)cc(-c2cc(NC(=O)[C@@H]3CNC(=O)C3)nn2-c2ccccc2)c1` [Example 410] returned an IC50 of 22 nM.

In turn, `Cc1cc(-c2cc(NC(=O)[C@@H]3CNC(=O)C3)nn2-c2ccccc2)cc(C(C)(C)C)c1` [Example 411] gave an IC50 of 4.4 nM.

In the case of `CCCc1cccc(-c2cc(NC(=O)[C@@H]3CNC(=O)C3)nn2-c2cccc(OC3CCC3)c2)c1` [Example 412], the IC50 was 10.9 nM.

The compound `CCCc1cccc(-c2cc(NC(=O)[C@@H]3CNC(=O)C3)nn2-c2ccc(F)c(OCCOC)c2)c1` [Example 414] gave an IC50 of 11.4 nM.

In the case of `CCCc1cccc(-c2cc(NC(=O)[C@@H]3CNC(=O)C3)nn2-c2ccc(F)c(OCCO)c2)c1` [Example 415], the IC50 turned out to be 13 nM.

Consider `COc1cc(-n2nc(NC(=O)[C@@H]3CNC(=O)C3)cc2-c2cccc(COCC(F)(F)F)c2)ccc1F` [Example 416], for which the IC50 is 15 nM.

In turn, `CCOc1cc(-n2nc(NC(=O)[C@@H]3CNC(=O)C3)cc2-c2cccc(COCC(F)(F)F)c2)ccc1F` [Example 417] returned an IC50 of 4.3 nM.

For the compound `CC(C)Oc1cc(-n2nc(NC(=O)[C@@H]3CNC(=O)C3)cc2-c2cccc(COCC(F)(F)F)c2)ccc1F` [Example 418], the IC50 was determined as 2.35 nM.

The compound `CCCOc1cc(-n2nc(NC(=O)[C@@H]3CNC(=O)C3)cc2-c2cccc(COCC(F)(F)F)c2)ccc1F` [Example 419] registered an IC50 of 4.75 nM.

Compound `COc1cc(-n2nc(NC(=O)[C@@H]3CNC(=O)C3)cc2-c2cccc(OC(F)(F)F)c2)ccc1F` [Example 420] came in with an IC50 of 47 nM.

The test is the same for the next values; noted with them: CHO-K1, at 0.1 uM.
For `CCCc1cccc(-c2cc(NC(=O)C3CNC(=O)C3(C)C)nn2-c2ccccc2)c1` (stereo not drawn) [Example 398], the inhibition at 0.1 µM was 7%.

Compound `CCCc1cccc(-c2cc(NC(=O)C3CC(=O)NC3C)nn2-c2ccccc2)c1` (stereo not drawn) [Example 405] registered an inhibition at 0.1 µM of 29%.

As for `CC(C)(C)OC(=O)c1cccc(-c2cc(NC(=O)[C@@H]3CNC(=O)C3)nn2-c2ccccc2)c1` [Example 413], the inhibition at 0.1 µM is 48%.
